Data on one substance can be found in US20080076711A1, “Therapeutic agents for osteopenia” (Chugai Seiyaku Kabushiki Kaisha, priority 2001, published 2008).

Assay [1] relates to OPN knockout (OPN-KO) mice. Description: BFR and MAR in cortical bone (femoral mid-diaphysis) after PTH treatment, OPN-KO mice. Format: in vivo, mouse. On the procedure: In the case of cortical bone, decalcified horizontal sections (serial sections of 3 μm thickness) were prepared from the femoral mid-diaphysis and analyzed for BFR and MAR in the periosteal and endosteal regions. More specifically, a calcium chelator calcein (4 mg/kg of body weight) was subcutaneously administered 9 days and 2 days before sampling and the interval between two labeled bands was determined under a fluorescence microscope to calculate BFR and MAR.
BFR denotes bone formation rate per unit trabecular area (μm^3/μm^2/day).
MAR denotes the rate of increase in the distance between labeled calcified bands (μm/day).
(§1) To create an animal model in which the in vivo effects of OPN were inhibited, strain 129 female mice at 7 weeks of age were modified into knockout mice deficient in the OPN gene (OPN-KO mice), as described in Rittling et al. J. Bone Miner. Res., 13: 1101-1111, 1998. These mice were singly used for PTH treatment test. They were divided into groups of 6 mice each.
Recombinant human PTH(1-34) (Bachem, Torrance, Calif.) was dissolved in acidified physiological saline supplemented with 0.1% bovine serum albumin (Sigma Chemical Co.-Aldrich, St. Louis, Mo.). The OPN-KO mice were subcutaneously administered with 80 μg/kg of body weight human PTH(1-34) for 4 weeks on a five-days-a-week basis. Mice in the control group were administered with physiological saline alone.

Assay [2] relates to OPN knockout (OPN-KO) mice. Description: Determination of TRAP-positive cells (osteoclasts) after PTH treatment, OPN-KO mice. The assay is classed as in vivo, mouse. The note with it: PTH(+) group, 80 μg/kg s.c., 4 weeks. On the procedure:
(§2) After treatment with PTH, forefoot bone was excised from each animal. Each bone was rinsed with PBS, fixed for 7 days in 4% paraformaldehyde acid and decalcified for 3 days in 10% EDTA (pH 7.4), followed by dehydration and embedding in paraffin. Serial sections of 7 μm thickness were prepared from paraffin blocks and stained to measure TRAP (tartrate resistant acid phosphatase) activity, with Alcian blue for counter-staining. Among TRAP-positive cells attached to cancellous bone, those having at least three nuclei were counted using 15 serial sections of 7 μm thickness prepared from each bone. Each of the 15 sections was taken at five-section intervals from a total of 75 sections per bone. The number of multinucleated TRAP-positive cells in all 15 sections was summed to give the total number of osteoclasts per unit trabecular perimeter.
as §1
Recombinant human PTH(1-34) (Bachem, Torrance, Calif.) was dissolved in acidified physiological saline supplemented with 0.1% bovine serum albumin (Sigma Chemical Co.-Aldrich, St. Louis, Mo.). […]

In assay [3] the test system is wild-type strain 129 female mice. Kind of assay: Determination of cancellous bone mass (BV/TV) after PTH treatment, wild-type mice. The assay is classed as in vivo, mouse. The note with it: WT mice, PTH(+) group, 80 μg/kg s.c., 4 weeks, five days a week. On the procedure: Sagittal sections were prepared from the metaphyseal region of femur and tomographed using an X-ray microtomograph Musashi (Nittetsu-ELEX, Osaka, Japan). A Luzex-F automated Image analysis system (Nireco, Tokyo, Japan) was then used for analysis of the image data from a 1.47 mm^2 square area (0.7 mm×2.1 mm) located 0.2 mm apart from the growth plate of the distal end of femur to obtain BV/TV values. BV/TV (bone volume/total tissue volume) denotes the unit bone mass (%), i.e., the percentage of the total trabecular volume in the total tissue volume. Namely, an increase in BV/TV means an increase in calcified bone. Recombinant human PTH(1-34) (Bachem, Torrance, Calif.) was dissolved in acidified physiological saline supplemented with 0.1% bovine serum albumin (Sigma Chemical Co.-Aldrich, St. Louis, Mo.). The OPN-KO mice were subcutaneously administered with 80 μg/kg of body weight human PTH(1-34) for 4 weeks on a five-days-a-week basis. Mice in the control group were administered with physiological saline alone. The effect of PTH on bone metabolism was also examined in the same manner as shown in Example 1, using wild-type strain 129 female mice (7 weeks of age). These mice were divided into groups of 6 mice each.

Assay [4] shares this test system. Kind of assay: BFR and MAR in cortical bone (femoral mid-diaphysis) after PTH treatment, wild-type mice. Format: in vivo, mouse. As to conditions: WT mice. On the procedure: In the case of cortical bone, decalcified horizontal sections (serial sections of 3 μm thickness) were prepared from the femoral mid-diaphysis and analyzed for BFR and MAR in the periosteal and endosteal regions. More specifically, a calcium chelator calcein (4 mg/kg of body weight) was subcutaneously administered 9 days and 2 days before sampling and the interval between two labeled bands was determined under a fluorescence microscope to calculate BFR and MAR. BFR denotes bone formation rate per unit trabecular area (μm^3/μm^2/day). MAR denotes the rate of increase in the distance between labeled calcified bands (μm/day). Recombinant human PTH(1-34) (Bachem, Torrance, Calif.) was dissolved in acidified physiological saline supplemented with 0.1% bovine serum albumin (Sigma Chemical Co.-Aldrich, St. Louis, Mo.). The OPN-KO mice were subcutaneously administered with 80 μg/kg of body weight human PTH(1-34) for 4 weeks on a five-days-a-week basis. Mice in the control group were administered with physiological saline alone. The effect of PTH on bone metabolism was also examined in the same manner as shown in Example 1, using wild-type strain 129 female mice (7 weeks of age). These mice were divided into groups of 6 mice each.

Assay [5] has the same test system. Description: Determination of TRAP-positive cells (osteoclasts) after PTH treatment, wild-type mice. The assay is classed as in vivo, mouse. As to conditions: WT mice, PTH(+) group, 80 μg/kg s.c., 4 weeks. On the procedure:
as §2, with “perimeter. Recombinant human PTH(1-34) (Bachem, Torrance, Calif.) was dissolved in acidified physiological saline supplemented with 0.1% bovine serum albumin (Sigma Chemical Co.-Aldrich, St. Louis, Mo.). The OPN-KO mice were subcutaneously administered with 80 μg/kg of body weight human PTH(1-34) for 4 weeks on a five-days-a-week basis. Mice in the control group were administered with physiological saline alone. The effect of PTH on bone metabolism was also examined in the same manner as shown in Example 1, using wild-type strain 129 female mice (7 weeks of age). […]” for “perimeter.”

Assay [6] concerns postmenopausal patients with osteoporosis. The note with it: 100 μg/day once-daily subcutaneous injections for 6 months; cited from earlier work.
The mark [7] stands for this setting: PTH(+) group, 80 μg/kg s.c., 4 weeks.
The mark [8] stands for this setting: PTH(+) vs PTH(−) group, significant inhibition of bone formation (p<0.05).

Regarding human PTH(1-34), in assay [1] (setting [7]), the “endosteal BFR, cortical bone” value came out at 0.62±0.09 μm^3/μm^2/day; the “endosteal MAR, cortical bone” value was 1.33±0.28 μm/day; the “periosteal BFR (bone formation rate), cortical bone” value worked out at 2.38±0.18 μm^3/μm^2/day; the “periosteal MAR (mineral apposition rate), cortical bone” value was 2.97±0.25 μm/day. Further, the “effect of PTH treatment on endosteal BFR and MAR” value in assay [1] (PTH(+) vs PTH(−) group) is reported as “little effect”. In assay [1] (PTH(+) vs PTH(−) group, p<0.05), the “fold increase in periosteal BFR by PTH treatment” value is roughly 1.8 fold and the “fold increase in periosteal MAR by PTH treatment” value is recorded as roughly 1.2 fold. For the same substance, the “number of osteoclasts per unit trabecular perimeter of cancellous bone” value in assay [2] turned out to be 7.6±1.0 cells/mm. The “cancellous bone mass BV/TV” value in assay [3] came to 21.17±2.68%. Also, in assay [4] (setting [7]), the “endosteal BFR, cortical bone” value came out at 1.37±0.18 μm^3/μm^2/day; the “endosteal MAR, cortical bone” value turned out to be 2.44±0.29 μm/day; the “periosteal BFR, cortical bone” value was found to be 1.07±0.08 μm^3/μ^2/day; the “periosteal MAR, cortical bone” value is recorded as 2.05±0.21 μm/day. In addition, in assay [4] (PTH(+) vs PTH(−) group, p<0.05), the “fold increase in endosteal BFR by PTH treatment” value was “about 1.8 fold” and the “fold increase in endosteal MAR by PTH treatment” value is given as roughly 1.5 fold. In addition, in assay [4] (setting [8]), the “fold increase in periosteal BFR by PTH treatment” value is roughly 0.6 fold and the “fold increase in periosteal MAR by PTH treatment” value is listed as roughly 0.7 fold. Further, the “number of osteoclasts per unit trabecular perimeter of cancellous bone trabeculae” value in assay [5] turned out to be 9.2±1.8 cells/mm. In assay [6], the calcium balance entry was “restored normal calcium balance” and the cancellous bone mass entry was “increased cancellous bone mass”.
